The values below are quoted from earlier work in US10035944B2, “Using synthetic acid compositions as alternatives to conventional acids in the oil and gas industry” (priority 2014, dated 2018).

The conditions of this data set: death in 2-3 minutes.

`Cl` [Hydrogen chloride gas, Hydrogen chloride]: the “level at which death can occur” value is 1300-2000 ppm.
